Assay results: patent US11523990B2, “Non-covalent, self-organzing hydrogel matrix for biotechnological applications” (DENOVOMATRIX GMBH, priority 2012, dated 2022)

Assays:
[1] = Rheological gelation measurement (MCR 302, cone-plate); type: physicochemical; details: for Loss Factor at te / Storage modulus G′ at te: 1 mM KA7-RGDSP-starPEG + 1 mM 5DexS or 0.01 mM 500DexS; for Storage moduli G′: 2 mM KA7-RGDSP-starPEG + 2 mM oligosaccharide, after 110 min of gelation
Method: The oligosaccharides were purchased as given in Table 9 and weighed out as required prior each experiment. Oligosaccharides and peptide-starPEG conjugates were dissolved in PBS (oligosaccharides at five-fold and peptide-starPEG at 1.25-fold of the final concentration) and mixed thoroughly. The samples were applied directly onto the measuring system. First, 80% of the final sample volume was provided by the peptide-starPEG solution. Second, the oligosaccharide solution was added to complete to 100% of sample volume.
The Modular Compact Rheometer MCR 302 (Anton Paar) was used with temperature control unit (P-PTD200+H-PTD200, Anton Paar) and cone-plate measuring system (CP20-0.3 and INSET I-PP20/SS, Anton Paar) for assessment of the mechanical properties of the hydrogels of different composition. The gelation measurement was performed at 20° C. with 1% oscillatory shear strain and a frequency of 1 Hz every 5 min for 2 hours. The data was analyzed with Excel (Excel 2013, Microsoft).
The following experiments studied the mechanical properties of hydrogels formed of different components. FIG. 14 summarizes the chosen parameters and measurement values. The storage modulus G′ and loss modulus G″ are calculated from the complex modulus G, which is recorded by the oscillating rheometer. The loss factor tan δ is further calculated by G″ divided by G′.

[2] = High-throughput centrifuge analysis of mechanical properties of the hydrogels (surface deformation, metal bead penetration); type: physicochemical; details: 5 mM peptide-starPEG + 5 mM 14-kDa-heparin; for Deformation speed: 50 μl 1×PBS, 45° centrifuge
Method: ATIII is a heparin-binding peptide known from the literature. All peptides are connected to a four-armed, maleimide functionalized 10-kDa-polyethylene glycol (starPEG). The hydrogel formation was tested in a 50 μI mixture, which contains 5 mM 14-kDa-heparin and 5 mM (2.5 mM) peptide-starPEG conjugate in phosphate buffer solution (1×PBS, pH 7.4). The deformation and penetration speed was analyzed through centrifuging the hydrogel in a 45° table centrifuge with 275 μm metal beads added to the surface. The deformation of the surface and the penetration of the metal beads were monitored in dependence on the applied force.
A comparative high-throughput analysis was performed regarding the mechanical properties of the hydrogels. In order to provide a fast high-throughput method for comparing small amounts of hydrogel, a tabletop centrifuge (5424R, Eppendorf, Hamburg, Germany) was used. For this purpose, 50 μl of the hydrogel were formed by mixing the peptide-starPEG-conjugates and 14-kDa-heparin in phosphate buffer (1×PBS, pH 7.4) to a final concentration of 5 mM (once 2.5 mM for KA7-starPEG). The mixture was incubated in 0.2 ml reaction vessels overnight. The deformation of the hydrogel surface was determined in reference to the 45° centrifuge rotor and the penetration of 275 μm metal beads in dependence on the force that has to be produced by the centrifuge. All experiments were repeated three times.
Hereby FIGS. 5A and B show a deformation of the surface of the 50 μl hydrogel in a 0.2 ml reaction tube, more specifically FIG. 5A below the speed required for deforming the surface, and FIG. 5B at the speed required for deforming the surface. FIG. 5C is a schematic representation of the penetration of a small spheres through 50 μl hydrogel in a 0.2 ml reaction tube depending on the force exerted by the 45° centrifuge.
The hydrogels were formed by mixing peptide-starPEG-conjugate and 14-kDa-heparin at 5 mM final concentration in 50 μl phosphate buffer (1×PBS). The analysis was performed by centrifuging the hydrogels in a 45° tabletop centrifuge with 275 μm metal beads on the gel surface. The deformation of the surface and the penetration of the spheres were recorded in dependence on the exerted force.

[3] = 1.5 mM KA7-starPEG(10 kD) + 3 mM cyclodextrin sulfate, te 120 min
[4] = te 120 min, sulfate sodium salt
[5] = 1 mM KA7-RGDSP-starPEG(40 kDa) + 1 mM oligosaccharide, te 120 min
[6] = 2 mM KA7-RGDSP-starPEG(10 kDa) + 2 mM oligosaccharide, te 110 min (5DexS), 120 min (Hep)
[7] = 2 mM KA7-starPEG + 2 mM 5DexS or 0.02 mM 500DexS, te 120 min, sulfate sodium salt
[8] = 2 mM KA7-starPEG(10 kDa) + 2 mM oligosaccharide, te 120 min

## α-cyclodextrin sulfated sodium salt
[1]; [3]
  Loss Factor at time point: 0.0641
  Storage modulus G′ at time point: 30,561 Pa

## CWGGRARARARARA [RA5]
[2]
  Deformation speed: >687 m/s^2
[2]; 275 μm metal beads
  Penetration speed: >687 m/s^2

## CWGGKAFAKLAARLYRKA (Human) [ATIII, reference compound]
[2]
  Deformation speed: gel shrank

## γ-cyclodextrin sulfated sodium salt
[1]; [3]
  Loss Factor at time point: 0.0355
  Storage modulus G′ at time point: 30,749 Pa

## β-cyclodextrin sulfated sodium salt
[1]; [3]
  Loss Factor at time point: 0.062
  Storage modulus G′ at time point: 33,169 Pa

## Dextran sulfate sodium salt [Peptide 5DexS]
[1]; [4]
  Loss Factor at te: 0.00681
  Storage modulus G′ at te: 2,295 Pa
[1]; [5]
  Loss Factor at time point: 0.0105
[1]
  Storage moduli G′: 14.5 kPa
[1]; [6]
  Loss Factor at time point: 0.00611
  Storage modulus G′ at time point: 14,486 Pa
[1]; [7]
  Loss Factor at time point: 0.132
  Storage modulus G′ at time point: 76,977 Pa
[1]; [8]
  Loss Factor at time point: 0.132
  Storage modulus G′ at time point: 76,977 Pa

## Heparin [reference compound]
[1]; [5]
  Loss Factor at time point: 0.0486
  Storage modulus G′ at time point: 811 Pa
[1]
  Storage moduli G′: 12.1 kPa
[1]; [6]
  Loss Factor at time point: 0.0193
  Storage modulus G′ at time point: 12,104 Pa
[1]; [8]
  Loss Factor at time point: 0.0131
  Storage modulus G′ at time point: 1,849 Pa
[1]; 2 mM KA7-starPEG, after 120 min of gelation
  Factor by which storage modulus G′ is lower than for 5DexS gels: 40

## Dextran sulfate sodium salt [Peptide 500DexS]
[1]; [4]
  Loss Factor at te: 0.0307
  Storage modulus G′ at te: 1,658 Pa
[1]; [7]
  Loss Factor at time point: 0.0887
  Storage modulus G′ at time point: 34,694 Pa
